Reference: patent US20260262643A1, “HERBICIDAL BENZOXAZINES” (FMC CORPORATION, priority 2022, published 2026)

Key:
barnyardgrass [1] = assay: Test C preemergence; format: in vivo, Echinochloa crusgalli; details: for Plant response rating, Barnyardgrass: Preemergence
Method in brief: (§1)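 Soil-applied (pre) and foliar (post, 1–2 leaf, 2–10 cm) sprays; surfactant-containing non-phytotoxic solvent vehicle; loam/sand substrate. Readout: visual % control at 10 d, greenhouse, versus untreated.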

blackgrass [2] = assay: Test C preemergence; format: in vivo, Alopecurus myosuroides; details: for Plant response rating, Blackgrass: Preemergence
Method in brief: as §1

corn [3] = assay: Test C preemergence; format: in vivo, Zea mays; details: for Corn plant response rating: 500 g ai/ha, preemergence, 0 to 100 scale (0 no effect, 100 complete control)
Method in brief: as §1

green foxtail [4] = assay: Test C preemergence; format: in vivo, Setaria viridis; details: for Foxtail, Green plant response rating: 500 g ai/ha, preemergence; for Plant response rating, Foxtail, Green: Preemergence
Method in brief: as §1

kochia [5] = assay: Test C preemergence; format: in vivo, Bassia scoparia; details: for Kochia plant response rating: 500 g ai/ha, preemergence; for Plant response rating, Kochia: Preemergence
Method in brief: as §1

pigweed, palmer [6] = assay: Test C preemergence; format: in vivo, Amaranthus palmeri; details: for Pigweed, Palmer plant response rating: 500 g ai/ha, preemergence; for Plant response rating, Pigweed, Palmer: Preemergence
Method in brief: as §1

ragweed [7] = assay: Test C preemergence; format: in vivo, Ambrosia artemisiifolia; details: for Ragweed plant response rating: 500 g ai/ha, preemergence; for Plant response rating, Ragweed: Preemergence
Method in brief: as §1

ryegrass, Italian [8] = assay: Test C preemergence; format: in vivo, Lolium multiflorum; details: for Ryegrass, Italian plant response rating: 500 g ai/ha, preemergence; for Plant response rating, Ryegrass, Italian: Preemergence
Method in brief: as §1

soybean [9] = assay: Test C preemergence; format: in vivo, Glycine max; details: for Soybean plant response rating: 500 g ai/ha, preemergence, 0 to 100 scale (0 no effect, 100 complete control)
Method in brief: as §1

wheat [10] = assay: Test C preemergence; format: in vivo, Triticum aestivum; details: for Wheat plant response rating: 500 g ai/ha, preemergence, 0 to 100 scale (0 no effect, 100 complete control)
Method in brief: as §1

barnyardgrass [11] = assay: Test C postemergence; format: in vivo, Echinochloa crusgalli
Method in brief: as §1

blackgrass [12] = assay: Test C postemergence; format: in vivo, Alopecurus myosuroides; details: 10 days
Method in brief: as §1

corn [13] = assay: Test C postemergence; format: in vivo, Zea mays; details: 10 days; for Plant response rating, Corn: 0 to 100 scale (0 no effect, 100 complete control)
Method in brief: as §1

green foxtail [14] = assay: Test C postemergence; format: in vivo, Setaria viridis; details: 10 days
Method in brief: as §1

kochia [15] = assay: Test C postemergence; format: in vivo, Bassia scoparia; details: 10 days
Method in brief: as §1

oat, wild [16] = assay: Test C postemergence; format: in vivo, Avena fatua; details: 10 days, 0 to 100 scale (0 no effect, 100 complete control)
Method in brief: as §1

pigweed, palmer [17] = assay: Test C postemergence; format: in vivo, Amaranthus palmeri; details: 10 days
Method in brief: as §1

ragweed [18] = assay: Test C postemergence; format: in vivo, Ambrosia artemisiifolia; details: 10 days
Method in brief: as §1

ryegrass, Italian [19] = assay: Test C postemergence; format: in vivo, Lolium multiflorum; details: 10 days
Method in brief: as §1

soybean [20] = assay: Test C postemergence; format: in vivo, Glycine max; details: 10 days, 0 to 100 scale (0 no effect, 100 complete control)
Method in brief: as §1

wheat [21] = assay: Test C postemergence; format: in vivo, Triticum aestivum; details: 10 days, 0 to 100 scale (0 no effect, 100 complete control)
Method in brief: as §1

galium = assay: Test C postemergence; format: in vivo, Galium aparine; details: 10 days
Method in brief: as §1

horseweed = assay: Test C postemergence; format: in vivo, Erigeron canadensis; details: 10 days
Method in brief: as §1

barnyardgrass [22] = assay: Test D flooded paddy test; format: in vivo, Echinochloa crus-galli; details: 250 g ai/ha, applied to paddy water, visual rating after 13 to 14 days, scale 0 to 100 (0 no effect, 100 complete control)
Method in brief: (§2)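 Post-flood water application at the 2-leaf stage; 3 cm flood depth kept constant; visual control rating 0–100 after 13–14 days greenhouse growth.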

ducksalad = assay: Test D flooded paddy test; format: in vivo, Heteranthera limosa; details: 250 g ai/ha, applied to paddy water, visual rating after 13 to 14 days, scale 0 to 100 (0 no effect, 100 complete control)
Method in brief: as §2

rice = assay: Test D flooded paddy test; format: in vivo, Oryza sativa; details: 250 g ai/ha, applied to paddy water, visual rating after 13 to 14 days, scale 0 to 100 (0 no effect, 100 complete control)
Method in brief: as §2

sedge, umbrella = assay: Test D flooded paddy test; format: in vivo, Cyperus difformis; details: 250 g ai/ha, applied to paddy water, visual rating after 13 to 14 days, scale 0 to 100 (0 no effect, 100 complete control)
Method in brief: as §2

oat, wild [23] = assay: Test C preemergence; format: in vivo, Avena fatua; details: 500 g ai/ha, preemergence; 0 to 100 scale (0 no effect, 100 complete control)
Method in brief: as §1

[24] = 500 g ai/ha, preemergence, 0 to 100 scale (0 no effect, 100 complete control)
[25] = 125 g ai/ha, 0 to 100 scale, 0 no effect, 100 complete control
[26] = Preemergence, 125 g ai/ha, 0 to 100 scale, 0 no effect, 100 complete control
[27] = 0 to 100 scale (0 no effect, 100 complete control)
[28] = 500 g ai/ha, postemergence, 0 to 100 scale (0 no effect, 100 complete control)
[29] = Postemergence, 125 g ai/ha, 0 to 100 scale (0 no effect, 100 complete control)
[30] = 1000 g ai/ha, visual rating after 10 days, 0 to 100 scale (0 no effect, 100 complete control)
[31] = Postemergence, 1000 g ai/ha, visual 0 to 100 scale (0 no effect, 100 complete control)
[32] = 500 g ai/ha, visual rating after 10 days, 0 to 100 scale (0 no effect, 100 complete control)
[33] = Postemergence, 500 g ai/ha, visual 0 to 100 scale (0 no effect, 100 complete control)

SMILES: C[C@H]1CN(C(=O)c2cccc(-n3cnc(OS(C)(=O)=O)n3)c2)c2cccc(Cl)c2O1 [Compound 356]
- Barnyardgrass plant response rating (barnyardgrass [1]; [24]): 50
- Plant response rating, Barnyardgrass (barnyardgrass [1]; [25]): 10
- Blackgrass plant response rating (blackgrass [2]; [24]): 20
- Plant response rating, Blackgrass (blackgrass [2]; [25]): 0
- Corn plant response rating (corn [3]): 10
- Plant response rating, Corn (corn [3]; [26]): 0
- Foxtail, Green plant response rating (green foxtail [4]; [27]): 90
- Plant response rating, Foxtail, Green (green foxtail [4]; [25]): 30
- Kochia plant response rating (kochia [5]; [27]): 90
- Plant response rating, Kochia (kochia [5]; [25]): 0
- Pigweed, Palmer plant response rating (pigweed, palmer [6]; [27]): 100
- Plant response rating, Pigweed, Palmer (pigweed, palmer [6]; [25]): 40
- Ragweed plant response rating (ragweed [7]; [27]): 0
- Plant response rating, Ragweed (ragweed [7]; [25]): 0
- Ryegrass, Italian plant response rating (ryegrass, Italian [8]; [27]): 80
- Plant response rating, Ryegrass, Italian (ryegrass, Italian [8]; [25]): 70
- Soybean plant response rating (soybean [9]): 0
- Plant response rating, Soybean (soybean [9]; [26]): 0
- Wheat plant response rating (wheat [10]): 0
- Plant response rating, Wheat (wheat [10]; [26]): 0
- Plant response rating, Barnyardgrass (barnyardgrass [11]; 500 g ai/ha, postemergence, 10 days, 0 to 100 scale (0 no effect, 100 complete control)): 20
- Plant response rating, Barnyardgrass (barnyardgrass [11]; Postemergence, 125 g ai/ha, 0 to 100 scale (0 no effect, 100 complete control), 10 days): 10
- Plant response rating, Blackgrass (blackgrass [12]; [28]): 50
- Plant response rating, Blackgrass (blackgrass [12]; [29]): 0
- Plant response rating, Corn (corn [13]; 500 g ai/ha, postemergence): 20
- Plant response rating, Corn (corn [13]; Postemergence, 125 g ai/ha): 10
- Plant response rating, Foxtail, Green (green foxtail [14]; [28]): 30
- Plant response rating, Foxtail, Green (green foxtail [14]; [29]): 10
- Plant response rating, Kochia (kochia [15]; [28]): 80
- Plant response rating, Kochia (kochia [15]; [29]): 50
- Plant response rating, Oat, Wild (oat, wild [16]; 500 g ai/ha, postemergence): 20
- Plant response rating, Oat, Wild (oat, wild [16]; Postemergence, 125 g ai/ha): 10
- Plant response rating, Pigweed, Palmer (pigweed, palmer [17]; [28]): 70
- Plant response rating, Pigweed, Palmer (pigweed, palmer [17]; [29]): 40
- Plant response rating, Ragweed (ragweed [18]; [28]): 30
- Plant response rating, Ragweed (ragweed [18]; [29]): 20
- Plant response rating, Ryegrass, Italian (ryegrass, Italian [19]; [28]): 80
- Plant response rating, Ryegrass, Italian (ryegrass, Italian [19]; [29]): 30
- Plant response rating, Soybean (soybean [20]; 500 g ai/ha, postemergence): 100
- Plant response rating, Soybean (soybean [20]; Postemergence, 125 g ai/ha): 100
- Plant response rating, Wheat (wheat [21]; 500 g ai/ha, postemergence): 20
- Plant response rating, Wheat (wheat [21]; Postemergence, 125 g ai/ha): 10
- Plant response rating, Galium (galium; [28]): 100
- Plant response rating, Galium (galium; [29]): 90
- Plant response rating, Horseweed (horseweed; [28]): 40
- Plant response rating, Horseweed (horseweed; [29]): 30
- Plant response rating, Barnyardgrass (Flood) (barnyardgrass [22]): 0
- Plant response rating, Ducksalad (Flood) (ducksalad): 0
- Plant response rating, Rice (Flood) (rice): 0
- Plant response rating, Sedge, Umbrella (Flood) (sedge, umbrella): 0

SMILES: Cc1nccc(-c2cccc(C(=O)N3C[C@H](C)Oc4c(C)cccc43)c2)n1 [Compound 250]
- Plant response rating, Barnyardgrass (barnyardgrass [1]; [30]): 90
- Plant response rating, Blackgrass (blackgrass [2]; [30]): 30
- Plant response rating, Foxtail, Green (green foxtail [4]; [30]): 100
- Plant response rating, Kochia (kochia [5]; [30]): 80
- Plant response rating, Pigweed, Palmer (pigweed, palmer [6]; [30]): 80
- Plant response rating, Ragweed (ragweed [7]; [30]): 0
- Plant response rating, Ryegrass, Italian (ryegrass, Italian [8]; [30]): 90
- Plant response rating, Barnyardgrass (barnyardgrass [11]; Postemergence, 1000 g ai/ha, 0 to 100 scale, 0 no effect, 100 complete control): 50
- Plant response rating, Blackgrass (blackgrass [12]; [31]): 20
- Plant response rating, Foxtail, Green (green foxtail [14]; [31]): 80
- Plant response rating, Kochia (kochia [15]; [31]): 70
- Plant response rating, Pigweed, Palmer (pigweed, palmer [17]; [31]): 50
- Plant response rating, Ragweed (ragweed [18]; [31]): 50
- Plant response rating, Ryegrass, Italian (ryegrass, Italian [19]; [31]): 40
- Plant response rating, Galium (galium; [31]): 50
- Plant response rating, Horseweed (horseweed; [31]): 0
- Plant response rating, Barnyardgrass (Flood) (barnyardgrass [22]): 0
- Plant response rating, Ducksalad (Flood) (ducksalad): 0
- Plant response rating, Rice (Flood) (rice): 0
- Plant response rating, Sedge, Umbrella (Flood) (sedge, umbrella): 0

SMILES: CC(C)c1ncn(-c2cc(O)c(O)c(C(=O)N3C[C@H](C)Oc4c(Cl)cccc43)c2)n1 [Compound 272, [(2S)-8-chloro-2-methyl-2,3-dihydro-1,4-benzoxazin-4-yl]-[2,3-dihydroxy-5-(3-isopropyl-1,2,4-triazol-1-yl)phenyl]methanone]
- Plant response rating, Barnyardgrass (barnyardgrass [1]; [32]): 0
- Plant response rating, Blackgrass (blackgrass [2]; [32]): 0
- Corn plant response rating (corn [3]): 0
- Foxtail, Green plant response rating (green foxtail [4]; [27]): 0
- Kochia plant response rating (kochia [5]; [27]): 0
- Oat, Wild plant response rating (oat, wild [23]): 0
- Pigweed, Palmer plant response rating (pigweed, palmer [6]; [27]): 90
- Ragweed plant response rating (ragweed [7]; [27]): 30
- Ryegrass, Italian plant response rating (ryegrass, Italian [8]; [27]): 0
- Soybean plant response rating (soybean [9]): 0
- Wheat plant response rating (wheat [10]): 0
- Plant response rating, Barnyardgrass (barnyardgrass [11]; Postemergence, 500 g ai/ha, 10 days, visual 0 to 100 scale (0 no effect, 100 complete control)): 0
- pest or weed control at 500 g/ha (blackgrass [12]; Alopecurus myosuroides, post-emergence, 240 h, Postemergence, 500 g ai/ha, visual 0 to 100 scale (0 no effect, 100 complete control), read-out: Plant response rating, Blackgrass): 0%
- Corn plant response rating (crop injury, 0 = no effect, 100 = complete kill) at 500 g/ha (corn [13]; Zea mays, post-emergence, 240 h, Postemergence, 500 g ai/ha, visual 0 to 100 scale (0 no effect, 100 complete control)): 0%
- Plant response rating, Foxtail, Green (green foxtail [14]; [33]): 0
- Plant response rating, Galium (galium; [33]): 0
- Plant response rating, Horseweed (horseweed; [33]): 10
- Plant response rating, Barnyardgrass (Flood) (barnyardgrass [22]): 0
- Plant response rating, Ducksalad (Flood) (ducksalad): 0
- Plant response rating, Rice (Flood) (rice): 0
- Plant response rating, Sedge, Umbrella (Flood) (sedge, umbrella): 0
